Measured values reported in patent US20230010299A1, “HETEROCYCLIC TRPML1 AGONISTS” (LIBRA THERAPEUTICS, INC., priority 2019, published 2023).

Key:
TRPML1 [1] = target: T1, TRPML1 (Homo sapiens, UniProt Q9GZU1); assay: Cellular TRPML1 assay (FLIPR TETRA, GCaMP6f calcium read-out); type: cell-based; details: HEK T-REx/GCaMP6f/TRPML1 cells; Ca2+ response over 300 s, normalized to ML-SA1 50 μM; Ca2+ free or Optimem condition not given; read-out: Ec50 (Activity of TRPML1 agonists)
T1 construct: expressed in transfected cells
Method in brief: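 HEK T-REx cells stably expressing TRPML1 and GCaMP6f, assayed 24 h after seeding in Ca2+-free Tyrode's (pH 7.4) or Opti-MEM. Compounds injected on FLIPR Tetra (0.5% DMSO) in dose-response from 100 μM (1:2) or 50 μM (1:3.16); fluorescence kinetics 300 s, referenced to 50 μM ML-SA1 stimulator control.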

TRPML1 [2] = target: T1, TRPML1; assay: TRPML1 automated patch-clamp (QPatch 16X); type: cell-based; details: HEK T-REx/GcaMP6f/TRPML1 cells, current with compound/current in vehicle, extracellular pH 4.6
Description: TRPML1—Automated Patch-Clamp
HEK T-REx/GcaMP6f/TRPML1 cells were cultured in DMEM High Glucose (Lonza BioWhittaker cat. BE12-604F/U1; 500 mL) supplemented with Fetal Bovine Serum TET-FREE (Euroclone cat. EC S0182L; 50 mL, Penicillin-Streptomycin (BioWhittaker, cat. DE17-602E; 5 mL of 100× Solution), G418 (Sigma, cat. G8168; 0.25 mg/ml) and Zeocyn (InvivoGen, cat. ant-zn-1; 50 μg/ml).
HEK T-REx/GcaMP6f/TRPML1 cells were seeded 48 or 72 hours before experiment, at a concentration of 8*10^6/4*10^6 cells onto a T225 flask. Just before the experiments, cells were washed twice with D-PBS w/o Ca^2+/Mg^2+ (Euroclone cat. ECB4004L) and detached from the flask with trypsin-EDTA (Sigma cat. T4174; diluted 1/10). Cells were then re-suspended in the suspension solution: 25 mL EX-CELL ACF CHO medium(Sigma cat. C5467); 0.625 mL HEPES (Sigma cat. H0887); 0.25 mL of 100× Penicillin/Streptomycin (Euroclone cat. ECB3001D), 0.1 mL of Soybean Trypsin Inhibitor 10 mg/mL (Sigma cat. T6522) and placed on the QPatch 16X.
Dilution from stock were prepared just before the experiments in the extracellular solution (0.25% final DMSO concentration). DMSO solution was obtained from AppliChem (cat. A3672)
Patch Clamp Solutions: • Intracellular solution (mM): 120 CsMeSO3, 4 NaCl, 2 MgCl2, 10 EGTA, 20 HEPES, 2 Mg-ATP (pH 7.2 with CsOH). • Extracellular solution (mM): 140 NaGluconate, 5 KCl, 1 MgCl2, 2 CaCl2), 10 Glucose, 10 MES (pH 4.6 with HCl).
Patch Clamp Analysis—QPatch 16X
For the voltage clamp experiments on TRPML1, data were sampled at 5 KHz. After establishment of the seal and the passage in the whole cell configuration, the cells were held at −20 mV and the TRPML1 current was evoked using the voltage protocol illustrated in FIG. 2, applied every 5 sec. (50 ms at −20 mV; 20 ms at −120 mV, 1000 ms ramp from −120 to […]; 20 ms at +40 mV, and back to −20 mV); in the absence (vehicle period, i.e. 0.25% DMSO) and in the presence of increasing concentrations (3) of the compound under investigation.
Agonists: For data collection, the Sophion proprietary software was used and the analysis was performed off-line using Excel and GraphPad Prism (V 8.00). Results are reported in Table 6, expressed as TRPML1 current fold increase evoked by the compound under investigation (i.e. current in the presence of the compound/current in vehicle).

T1 sequence (Q9GZU1 whole entry): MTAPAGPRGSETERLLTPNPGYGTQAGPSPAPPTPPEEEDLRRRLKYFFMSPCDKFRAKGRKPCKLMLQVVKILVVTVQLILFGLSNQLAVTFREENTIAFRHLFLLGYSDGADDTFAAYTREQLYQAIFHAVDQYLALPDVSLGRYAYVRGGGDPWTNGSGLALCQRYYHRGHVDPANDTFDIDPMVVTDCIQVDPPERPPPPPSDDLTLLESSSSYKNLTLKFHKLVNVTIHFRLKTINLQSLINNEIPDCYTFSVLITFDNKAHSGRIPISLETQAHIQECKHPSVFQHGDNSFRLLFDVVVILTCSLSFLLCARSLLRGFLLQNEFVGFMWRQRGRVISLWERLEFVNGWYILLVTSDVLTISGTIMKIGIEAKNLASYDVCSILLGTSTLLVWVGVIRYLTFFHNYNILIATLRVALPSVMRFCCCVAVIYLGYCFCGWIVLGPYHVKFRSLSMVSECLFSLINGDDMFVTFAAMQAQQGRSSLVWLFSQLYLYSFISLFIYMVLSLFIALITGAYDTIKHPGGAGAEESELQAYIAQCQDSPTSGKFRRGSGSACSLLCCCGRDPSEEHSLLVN

SMILES | EC50 (TRPML1 [1]) [µM] | Qpatch Assay TRPML1 agonism Current fold increase Mean ± SEM (n) (TRPML1 [2]; 0.3 μM compound) | Qpatch Assay TRPML1 agonism Current fold increase Mean ± SEM (n) (TRPML1 [2]; 3.0 μM compound) | Qpatch Assay TRPML1 agonism Current fold increase Mean ± SEM (n) (TRPML1 [2]; 30 μM compound)
CN(C)S(=O)(=O)c1ccc(S(=O)(=O)Nc2ccccc2N2CCC(OCc3ccccc3)CC2)cc1 [Example 25, N4-{2-[4-(benzyloxy)piperidin-1-yl]phenyl}-N1,N1-dimethylbenzene-1,4-disulfonamide] | 1.8 | 3.5 ± 1.8 (3) | 177.1 ± 38.2 (3) | 1013.8 (1)
COC1CCN(c2ccccc2NS(=O)(=O)c2ccc(S(=O)(=O)N(C)C)cc2)CC1 [Example 26, N4-[2-(4-methoxypiperidin-1-yl)phenyl]-N1,N1-dimethylbenzene-1,4-disulfonamide] | 4.5 | 0.46 ± 0.16 (3) | 41.4 ± 21.1 | 390 ± 158 (3)
CN(C)S(=O)(=O)c1ccc(S(=O)(=O)Nc2ccccc2N2CCN(C(=O)OCC(F)(F)F)CC2)cc1 [Example 53, 2,2,2-trifluoroethyl4-{2-[4-(dimethylsulfamoyl)benzenesulfonamido]phenyl}piperazine-1-carboxylate] | 3.6 | 1.9 ± 1.6 (3) | 88.3 ± 59.9 (3) | 257.4 ± 190.7 (3)
CN(C)S(=O)(=O)c1ccc(S(=O)(=O)NCc2ccccc2N2CCCCC2)cc1 [Example 74, N1,N1-dimethyl-N4-{[2-(piperidin-1-yl)phenyl]methyl}benzene-1,4-disulfonamide] | 3.2 | 4.3 ± 2.0 (6) | 356 ± 69.7 (6) | 639 + 241 (3)
CN(C)S(=O)(=O)c1ccc(S(=O)(=O)Nc2ccccc2C2CCN(C(=O)OC(C)(C)C)CC2)cc1 [Example 78, f-butyl 4-{2-[4-(dimethylsulfamoyl)benzenesulfonamido]phenyl} piperidine-1-carboxylate] | 6.9 | 0.68 ± 0.34 (3) | 16.5 ± 9.1 (3) | 166 ± 75.7 (3)
CCCN(C)C(=O)N1CCN(c2ccccc2NS(=O)(=O)c2ccc(S(=O)(=O)N(C)C)cc2)CC1 [Example 82, 4-{2-[4-(dimethylsulfamoyl)benzenesulfonamido]phenyl}-N-methyl-N-propylpiperazine-1-carboxamide] | 5.9 | 2.5 ± 1.3 (3) | 12.5 ± 8.6 (3) | 138 ± 55.7 (3)
Cc1ccc(S(=O)(=O)Nc2ccccc2N2CCN(C(=O)OC(C)(C)C)CC2)cc1 [Example 83, t-butyl 4-[2-(4-methylbenzenesulfonamido)phenyl]piperazine-1-carboxylate] | 1.8 | 70.2 ± 13.8 (4) | 125.0 ± 31.0 (4) | 140.3 ± 36.8 (4)
CC(C)CNC(=O)C1CCN(c2ccccc2NS(=O)(=O)c2ccc(S(=O)(=O)N(C)C)cc2)CC1 [Example 88, 1-{2-[4-(dimethylsulfamoyl)benzenesulfonamido]phenyl}-N-(2-methylpropyl)piperidine-4-carboxamide] | 6.5 | −0.066 ± 0.080 (3) | 3.9 ± 2.5 (3) | 125 ± 75.3 (3)
COc1ccc(S(=O)(=O)Nc2ccccc2N2CCC(C(=O)OC(C)(C)C)CC2)cc1 [Example 91] | 3.3 | 3.1 ± 1.2 (3) | 21.7 ± 7.9 (3) | 58.8 ± 16.6 (3)

More lines, in order of falling EC50 (TRPML1 [1]), values ahead:

EC50 (TRPML1 [1]) [µM] | Qpatch Assay TRPML1 agonism Current fold increase Mean ± SEM (n) (TRPML1 [2]; 0.3 μM compound) | Qpatch Assay TRPML1 agonism Current fold increase Mean ± SEM (n) (TRPML1 [2]; 3.0 μM compound) | Qpatch Assay TRPML1 agonism Current fold increase Mean ± SEM (n) (TRPML1 [2]; 30 μM compound) | SMILES
7.2 | 1.3 ± 1.0 (3) | 10.4 ± 3.8 (3) | 472.5 ± 267.9 (3) | COC(=O)N1CCN(c2ccccc2NS(=O)(=O)c2ccc(S(=O)(=O)N(C)C)cc2)CC1 [Example 52, methyl 4-{2-[4-(dimethylsulfamoyl)benzenesulfonamido]phenyl}piperazine-1-carboxylate]
6.4 | −0.070 | −0.31 | 11.3 | CN(C)S(=O)(=O)c1ccc(S(=O)(=O)Nc2ccccc2N2CCN(C(=O)c3ccccc3)CC2)cc1 [Example 73, N4-[2-(4-benzoylpiperazin-1-yl)phenyl]-N1,N1-dimethylbenzene-1,4-disulfonamide]
4.2 | 8.6 ± 1.3 (2) | 32.9 ± 3.5 (2) | 42.7 ± 1.4 (2) | COc1ccc(S(=O)(=O)Nc2ccccc2N2CCN(C(=O)OC(C)(C)C)CC2)cc1 [Example 84, t-butyl 4-[2-(4-methoxybenzenesulfonamido)phenyl]piperazine-1-carboxylate]
3.2 | 0.5 ± 0.3 (3) | 22.5 ± 10.6 (3) | 656.7 ± 150.5 (3) | CCOC(=O)N1CCN(c2ccccc2NS(=O)(=O)c2ccc(S(=O)(=O)N(C)C)cc2)CC1 [Example 70, ethyl4-{2-[4-(dimethylsulfamoyl)benzenesulfonamido]phenyl}piperazine-1-carboxylate]
2.5 | 140 ± 44.1 (4) | 83.1 ± 34.0 (2) | 112 ± 38.1 (2) | Cc1ccc(S(=O)(=O)Nc2ccccc2N2CCC(C(=O)OC(C)(C)C)CC2)cc1 [Example 90]
1.6 | 17.7 ± 5.5 (4) | 206 ± 167 (2) | 260 ± 202 (2) | CN(C)S(=O)(=O)c1ccc(S(=O)(=O)Nc2ccccc2N2CCCCCC2)cc1 [Example 85, N4-[2-(azepan-1-yl)phenyl]-N 1 ,N1-dimethylbenzene-1,4-disulfonamide]
